In patent US12371454B2, “Cyclic peptide compound having Kras inhibitory action” (priority 2019, dated 2025):
Starred links: 1 amine or outer side, 2 acyl side, 3 side chain; linkers in the order of their positions; H or OH if unused. Positions of bridges follow the written chain, without caps; N, C: chain ends. Non-standard residues stand in square brackets, D forms with d. Residues, ends and D or L forms follow the SMILES beside them. *: point of attachment. hPhe(3,5-F2-4-CF3) = N[C@@H](CCc1cc(F)c(C(F)(F)F)c(F)c1)C(=O)O; hPhe(3-Cl-4-CF3) = N[C@@H](CCc1ccc(C(F)(F)F)c(Cl)c1)C(=O)O; X38 = CN([C@@H](Cc1cccc(OC(F)(F)F)c1)C(=O)[*:2])[*:1]; NMePhe(4-CF3) = CN[C@@H](Cc1ccc(C(F)(F)F)cc1)C(=O)O; NMePhe(3-CN) = CN[C@@H](Cc1cccc(C#N)c1)C(=O)O; NMePhe(3-OMe) = CN[C@@H](Cc1cccc(OC)c1)C(=O)O; NMePhe(3-Br) = CN[C@@H](Cc1cccc(Br)c1)C(=O)O; NMePhe(4-Br) = CN[C@@H](Cc1ccc(Br)cc1)C(=O)O; NMePhe(4-Me) = CN[C@@H](Cc1ccc(C)cc1)C(=O)O; NMePhe(4-F) = CN[C@@H](Cc1ccc(F)cc1)C(=O)O; NMeGly(cPent) = CN[C@H](C(=O)O)C1CCCC1; NMe4Pal = CN[C@@H](Cc1ccncc1)C(=O)O; NMeCha = CN[C@@H](CC1CCCCC1)C(=O)O; NMeChg = CN[C@H](C(=O)O)C1CCCCC1; NMeI = CC[C@H](C)[C@H](NC)C(=O)O; dNMeF = CN[C@H](Cc1ccccc1)C(=O)O; NMeD = CN[C@@H](CC(=O)O)C(=O)O; NMeL = CN[C@@H](CC(C)C)C(=O)O; d(β3hP) = O=C(O)C[C@H]1CCCN1; NMeNva = CCC[C@H](NC)C(=O)O; NMeV = CN[C@H](C(=O)O)C(C)C; d(β3hA) = C[C@@H](N)CC(=O)O; Morpholide = C1CN(*)CCO1; NMeA = CN[C@@H](C)C(=O)O; Piperidide = C1CCN(*)CC1; Pyrrolidide = C1CCN(*)C1; dNMeA = CN[C@H](C)C(=O)O; Ac5c = NC1(C(=O)O)CCCC1; Aze = O=C(O)[C@@H]1CCN1; Sar = CNCC(=O)O

Molecular target: T1, Kras and SOS1 (biotin-tagged human Kras loaded with GDP, His-tagged human SOS1) (Homo sapiens, UniProt P01116, G12D)
T1 construct: made in house; host or cells: E. coli (stated for Kras only)
Experiment: Protein-protein interaction inhibition between Kras and SOS1 (KrasGl2D-SOS PPI) using AlphaScreen
Assay type: binding
Conditions: AlphaScreen; biotin-tagged human Kras loaded with GDP, His-tagged human SOS1; read-out: KRAS G12D-SOS PPI IC50
In short: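 Donor beads (nickel) hold His-SOS1; acceptor beads (streptavidin) hold biotin-Kras bound to GDP. Signal measured at 520-620 nm following 680 nm excitation.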

T1 sequence (P01116 1-188 isoform P01116-2 G12D): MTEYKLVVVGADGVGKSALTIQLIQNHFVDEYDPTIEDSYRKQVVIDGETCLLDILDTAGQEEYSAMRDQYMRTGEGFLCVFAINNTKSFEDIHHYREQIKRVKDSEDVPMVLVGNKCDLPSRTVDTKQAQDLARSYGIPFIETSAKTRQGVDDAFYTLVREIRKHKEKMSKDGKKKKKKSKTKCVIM

| SMILES | IC50 |
| --- | --- |
| CC[C@H](C)[C@@H]1NC(=O)[C@H](CC(C)C)N(C)C(=O)C[C@@H](C(=O)N(C)C)N(C)C(=O)[C@H]([C@@H](C)CC)N(C)C(=O)C2(CCCC2)NC(=O)[C@H](Cc2ccncc2)N(C)C(=O)[C@H](CCc2ccc(C(F)(F)F)c(Cl)c2)NC(=O)CN(C)C(=O)[C@H](Cc2ccc(C)cc2)N(C)C(=O)[C@@H]2CCN2C(=O)[C@H](C)N(C)C1=O [Compound 1962] ([NMeL]I[NMeA][Aze][NMePhe(4-Me)][Sar][hPhe(3-Cl-4-CF3)][NMe4Pal][Ac5c][NMeI][NMeD]-NMe2; lactam N-11) | 1.4 nM |
| CC[C@H](C)[C@@H]1NC(=O)[C@H](CC(C)C)N(C)C(=O)C[C@@H](C(=O)N(C)C)N(C)C(=O)[C@H]([C@@H](C)CC)N(C)C(=O)C2(CCCC2)NC(=O)[C@H](Cc2ccc(Br)cc2)N(C)C(=O)[C@H](CCc2ccc(C(F)(F)F)c(Cl)c2)NC(=O)CN(C)C(=O)[C@H](Cc2ccc(C)cc2)N(C)C(=O)[C@@H]2CCN2C(=O)[C@H](C)N(C)C1=O [Compound 1964] ([NMeL]I[NMeA][Aze][NMePhe(4-Me)][Sar][hPhe(3-Cl-4-CF3)][NMePhe(4-Br)][Ac5c][NMeI][NMeD]-NMe2; lactam N-11) | 36 nM |
| CC[C@H](C)[C@@H]1NC(=O)[C@H](CC(C)C)N(C)C(=O)C[C@@H](C(=O)N(C)C)N(C)C(=O)[C@H]([C@@H](C)CC)N(C)C(=O)C2(CCCC2)NC(=O)[C@H](Cc2cccc(OC(F)(F)F)c2)N(C)C(=O)[C@H](CCc2ccc(C(F)(F)F)c(Cl)c2)NC(=O)CN(C)C(=O)[C@H](Cc2ccc(C)cc2)N(C)C(=O)[C@@H]2CCN2C(=O)[C@H](C)N(C)C1=O [Compound 1970] ([NMeL]I[NMeA][Aze][NMePhe(4-Me)][Sar][hPhe(3-Cl-4-CF3)][X38][Ac5c][NMeI][NMeD]-NMe2; lactam N-11) | 52 nM |
| CC[C@H](C)[C@@H]1NC(=O)[C@H](CC(C)C)N(C)C(=O)C[C@@H](C(=O)N(C)C)N(C)C(=O)[C@H]([C@@H](C)CC)N(C)C(=O)[C@H](C)NC(=O)[C@H](Cc2ccncc2)N(C)C(=O)[C@H](CCc2ccc(C(F)(F)F)c(Cl)c2)NC(=O)CN(C)C(=O)[C@H](Cc2ccc(C)cc2)N(C)C(=O)[C@@H]2CCN2C(=O)[C@H](C)N(C)C1=O [Compound 1973] ([NMeL]I[NMeA][Aze][NMePhe(4-Me)][Sar][hPhe(3-Cl-4-CF3)][NMe4Pal]A[NMeI][NMeD]-NMe2; lactam N-11) | 7.1 nM |
| CC[C@H](C)[C@@H]1NC(=O)[C@H](CC(C)C)N(C)C(=O)C[C@@H](C(=O)N2CCOCC2)N(C)C(=O)[C@H]([C@@H](C)CC)N(C)C(=O)C2(CCCC2)NC(=O)[C@@H]2CCCN2C(=O)[C@H](CCc2ccc(C(F)(F)F)c(Cl)c2)NC(=O)CN(C)C(=O)[C@H](CC2CCCCC2)N(C)C(=O)CN(C)C(=O)CN(C)C1=O [Compound 1979] ([NMeL]I[Sar][Sar][NMeCha][Sar][hPhe(3-Cl-4-CF3)]P[Ac5c][NMeI][NMeD]-Morpholide; lactam N-11) | 0.64 nM |
| CC[C@H](C)[C@@H]1NC(=O)[C@H](C)N(C)C(=O)C[C@@H](C(=O)N(C)C)N(C)C(=O)[C@H]([C@@H](C)CC)N(C)C(=O)C2(CCCC2)NC(=O)[C@H](Cc2cccc(C#N)c2)N(C)C(=O)[C@H](CCc2ccc(C(F)(F)F)c(Cl)c2)NC(=O)CN(C)C(=O)[C@H](Cc2ccc(C)cc2)N(C)C(=O)[C@@H]2CCN2C(=O)[C@H](C)N(C)C1=O [Compound 1981] ([NMeA]I[NMeA][Aze][NMePhe(4-Me)][Sar][hPhe(3-Cl-4-CF3)][NMePhe(3-CN)][Ac5c][NMeI][NMeD]-NMe2; lactam N-11) | 5.1 nM |
| CC[C@H](C)[C@@H]1NC(=O)[C@H](CC(C)C)N(C)C(=O)C[C@@H](C(=O)N(C)C)N(C)C(=O)[C@H](C2CCCC2)N(C)C(=O)[C@H](C(C)C)NC(=O)[C@H](Cc2ccncc2)N(C)C(=O)[C@H](CCc2ccc(C(F)(F)F)c(Cl)c2)NC(=O)CN(C)C(=O)[C@H](CC2CCCCC2)N(C)C(=O)[C@@H]2CCN2C(=O)[C@H](C)N(C)C1=O [Compound 1982] ([NMeL]I[NMeA][Aze][NMeCha][Sar][hPhe(3-Cl-4-CF3)][NMe4Pal]V[NMeGly(cPent)][NMeD]-NMe2; lactam N-11) | 47 nM |
| CC[C@H](C)[C@@H]1NC(=O)[C@H](C)N(C)C(=O)C[C@@H](C(=O)N(C)C)N(C)C(=O)[C@H]([C@@H](C)CC)N(C)C(=O)C2(CCCC2)NC(=O)[C@H](Cc2ccc(F)cc2)N(C)C(=O)[C@H](CCc2cc(F)c(C(F)(F)F)c(F)c2)NC(=O)CN(C)C(=O)[C@H](Cc2ccc(C(F)(F)F)cc2)N(C)C(=O)[C@@H]2CCN2C(=O)[C@H](C)N(C)C1=O [Compound 1986] ([NMeA]I[NMeA][Aze][NMePhe(4-CF3)][Sar][hPhe(3,5-F2-4-CF3)][NMePhe(4-F)][Ac5c][NMeI][NMeD]-NMe2; lactam N-11) | 11 nM |
| CC[C@H](C)[C@@H]1NC(=O)[C@H](CC(C)C)N(C)C(=O)C[C@@H](C(=O)N2CCCCC2)N(C)C(=O)[C@H]([C@@H](C)CC)N(C)C(=O)C2(CCCC2)NC(=O)[C@@H](Cc2ccccc2)N(C)C(=O)[C@H](CCc2ccc(C(F)(F)F)c(Cl)c2)NC(=O)CN(C)C(=O)[C@H](Cc2ccc(C)cc2)N(C)C(=O)[C@@H]2CCN2C(=O)[C@H](C)N(C)C1=O [Compound 1989] ([NMeL]I[NMeA][Aze][NMePhe(4-Me)][Sar][hPhe(3-Cl-4-CF3)][dNMeF][Ac5c][NMeI][NMeD]-Piperidide; lactam N-11) | 460 nM |
| CC[C@H](C)[C@@H]1NC(=O)[C@H](CC(C)C)N(C)C(=O)C[C@@H](C(=O)N(C)C)N(C)C(=O)[C@H]([C@@H](C)CC)N(C)C(=O)C2(CCCC2)NC(=O)[C@H](Cc2cccc(OC)c2)N(C)C(=O)[C@H](CCc2ccc(C(F)(F)F)c(Cl)c2)NC(=O)CN(C)C(=O)[C@H](Cc2ccc(C)cc2)N(C)C(=O)[C@@H]2CCN2C(=O)[C@H](C)N(C)C1=O [Compound 1991] ([NMeL]I[NMeA][Aze][NMePhe(4-Me)][Sar][hPhe(3-Cl-4-CF3)][NMePhe(3-OMe)][Ac5c][NMeI][NMeD]-NMe2; lactam N-11) | 9.2 nM |
| CC[C@H](C)[C@@H]1NC(=O)[C@H](C)N(C)C(=O)C[C@@H](C(=O)N2CCCCC2)N(C)C(=O)[C@H]([C@@H](C)CC)N(C)C(=O)C2(CCCC2)NC(=O)[C@@H](Cc2ccccc2)N(C)C(=O)[C@H](CCc2cc(F)c(C(F)(F)F)c(F)c2)NC(=O)CN(C)C(=O)[C@H](Cc2ccc(C(F)(F)F)cc2)N(C)C(=O)[C@@H]2CCN2C(=O)[C@H](C)N(C)C1=O [Compound 1992] ([NMeA]I[NMeA][Aze][NMePhe(4-CF3)][Sar][hPhe(3,5-F2-4-CF3)][dNMeF][Ac5c][NMeI][NMeD]-Piperidide; lactam N-11) | 280 nM |
| CC[C@H](C)[C@@H]1NC(=O)[C@H](C)N(C)C(=O)C[C@@H](C(=O)N2CCCCC2)N(C)C(=O)[C@H]([C@@H](C)CC)N(C)C(=O)C2(CCCC2)NC(=O)[C@@H](Cc2ccccc2)N(C)C(=O)[C@H](CCc2ccc(C(F)(F)F)c(Cl)c2)NC(=O)CN(C)C(=O)[C@H](Cc2ccc(C)cc2)N(C)C(=O)[C@@H]2CCN2C(=O)[C@H](C)N(C)C1=O [Compound 1997] ([NMeA]I[NMeA][Aze][NMePhe(4-Me)][Sar][hPhe(3-Cl-4-CF3)][dNMeF][Ac5c][NMeI][NMeD]-Piperidide; lactam N-11) | 220 nM |
| CC[C@H](C)[C@@H]1NC(=O)[C@H](C)N(C)C(=O)C[C@@H](C(=O)N(C)C)N(C)C(=O)[C@H]([C@@H](C)CC)N(C)C(=O)C2(CCCC2)NC(=O)[C@H](Cc2cccc(Br)c2)N(C)C(=O)[C@H](CCc2ccc(C(F)(F)F)c(Cl)c2)NC(=O)CN(C)C(=O)[C@H](Cc2ccc(C)cc2)N(C)C(=O)[C@@H]2CCN2C(=O)[C@H](C)N(C)C1=O [Compound 2000] ([NMeA]I[NMeA][Aze][NMePhe(4-Me)][Sar][hPhe(3-Cl-4-CF3)][NMePhe(3-Br)][Ac5c][NMeI][NMeD]-NMe2; lactam N-11) | 15 nM |
| CCC[C@H]1C(=O)N[C@@H]([C@@H](C)CC)C(=O)N(C)CC(=O)N(C)CC(=O)N(C)[C@@H](CC2CCCCC2)C(=O)N(C)CC(=O)N[C@@H](CCc2ccc(C(F)(F)F)c(Cl)c2)C(=O)N2CCC[C@H]2C(=O)NC2(CCCC2)C(=O)N(C)[C@@H](C2CCCCC2)C(=O)N(C)[C@H](C(=O)N2CCCC2)CC(=O)N1C [Compound 2001] ([NMeNva]I[Sar][Sar][NMeCha][Sar][hPhe(3-Cl-4-CF3)]P[Ac5c][NMeChg][NMeD]-Pyrrolidide; lactam N-11) | 0.48 nM |
| CC[C@H](C)[C@@H]1NC(=O)[C@H](CC(C)C)N(C)C(=O)C[C@@H](C(=O)N(C)C)N(C)C(=O)[C@H]([C@@H](C)CC)N(C)C(=O)C2(CCCC2)NC(=O)[C@H](Cc2cccc(C#N)c2)N(C)C(=O)[C@H](CCc2ccc(C(F)(F)F)c(Cl)c2)NC(=O)CN(C)C(=O)[C@H](Cc2ccc(C)cc2)N(C)C(=O)[C@@H]2CCN2C(=O)[C@H](C)N(C)C1=O [Compound 2002] ([NMeL]I[NMeA][Aze][NMePhe(4-Me)][Sar][hPhe(3-Cl-4-CF3)][NMePhe(3-CN)][Ac5c][NMeI][NMeD]-NMe2; lactam N-11) | 3 nM |
| CC[C@H](C)[C@@H]1NC(=O)[C@H](CC(C)C)N(C)C(=O)C[C@H]2CCCN2C(=O)[C@H]([C@@H](C)CC)N(C)C(=O)C2(CCCC2)NC(=O)[C@@H]2CCCN2C(=O)[C@H](CCc2ccc(C(F)(F)F)c(Cl)c2)NC(=O)CN(C)C(=O)[C@H](Cc2ccc(C)cc2)N(C)C(=O)[C@@H]2CCN2C(=O)[C@H](C)N(C)C1=O [Compound 2003] (cyclo([Ac5c][NMeI][d(β3hP)][NMeL]I[NMeA][Aze][NMePhe(4-Me)][Sar][hPhe(3-Cl-4-CF3)]P)) | 8.6 nM |
| CC[C@H](C)[C@@H]1NC(=O)[C@H](C)N(C)C(=O)C[C@@H](C)NC(=O)[C@H](C(C)C)N(C)C(=O)C2(CCCC2)NC(=O)[C@@H]2CCCN2C(=O)[C@H](CCc2ccc(C(F)(F)F)c(Cl)c2)NC(=O)[C@@H](C)N(C)C(=O)[C@H](CC2CCCCC2)N(C)C(=O)CN(C)C(=O)[C@@H]2CCN2C1=O [Compound 2010] (cyclo([Ac5c][NMeV][d(β3hA)][NMeA]I[Aze][Sar][NMeCha][dNMeA][hPhe(3-Cl-4-CF3)]P)) | 220 nM |
